One block for each molecule: values may come before it.
Tests used:
[1] = test system: acute lymphoblastic leukemia cell line CCRF-CEM; assay: Fluorometric Microculture Cytotoxicity Assay (FMCA) in CCRF-CEM cells; type: cell-based; settings: Homo sapiens, FMCA after 72 h
Text: (§1) The Fluorometric Microculture Cytotoxicity Assay, FMCA (Larsson, R., et al.; Anticancer Res, 1989, 9, 1111-1119), is a three day non-clonogenic microplate-based cell viability assay used for measurement of the cytotoxic and/or cytostatic effect of compounds in vitro (Lindhagen, E. et al.; Nat. Protoc., 2008, 3, 1364-1369). FMCA represents a valuable method to measure cytotoxicity in a number of cell types, both cell lines and primary cells from patients (Larsson, R., et al.; Int. J. Cancer, 1992, 50, 177-185; Fridborg, H., et al.; Eur. J. Cancer, 1999. 35, 424-432; Dhar, S., et al.; Br. J. Cancer, 1996, 74, 888-896).
(§2) FMCA is based on the principle that fluorescein diacetate (FDA) is converted to the fluorescent probe fluorescein by esterases […]. For experiments, 96-well microplates are prepared with compounds and stored at −20° C. or −70° C. until use. Cells are then seeded into the drug-prepared plates and placed in an incubator for 72 h. On the last day of incubation, the plates are washed and a buffer containing FDA is added and incubated with the cells for 45 minutes. Finally the fluorescence per well is measured in a fluorometer and a Survival Index % (SI) for each compound-treated well is calculated with the equation: Compound-treated cells minus blank divided by control cells minus blank. A high SI-value indicates a large percentage of living cells and vice versa.
For experiments with compounds of the invention, 96-well plates were prepared as follows:
Compounds were dissolved in DMSO to 10 mM and stored at −20° C. The test compounds were thawed, protected from light, mixed, and 3 μl stock solution was added to test tubes containing 297 μl culture medium RPMI-1640, to give the concentration 100 μM. Then, compounds were serially diluted to concentrations ten times higher than the desired test concentrations. Finally, 20 μl of each compound solution was added in duplicates to wells in two V-bottomed 96-well plates. The plates were stored at −20° C. until use.
On the day of cell seeding, 180 μl of cell suspension was added to each well in the two assay plates. The final concentrations of compounds tested were 10 μM, 1 μM, 0.1 μM and 0.01 μM. The experiment was performed twice.
In subsequent experiments, compounds were tested, along with a number of approved cancer drugs (dasatinib and pazopanib) as described above. The acute lymphoblastic leukemia cell line CCRF-CEM was used throughout. In the assay plates, medium was added to eight empty wells (blank wells) and wells filled with cell suspension served as control wells. SI-values were then calculated for each compound-treated well as described above. All experiments were conducted twice and a new batch of plates was prepared for each experiment.
(§3) To obtain EC50-values, plates were prepared with compounds serially diluted in culture media to suitable concentration ranges for each compound. Thereafter cells were added at a density of 10 000 cells per well and FMCA was performed after 72 h. Data analysis was performed using GraphPadPrism software, where SI values for each concentration were plotted on a log scale and processed with non-linear regression and a standard sigmoidal dose-response model.

A2780 (ovarian cancer) = assay: FMCA cell viability in ovarian cancer cell line A2780; type: cell-based; settings: Homo sapiens; A2780 ovarian cancer cells
Text: as §1, §2, §3
(§4) The compounds of the invention were also tested on further cancer cell lines related to ovarian cancer (A2780; see e.g. Hamilton, T. et al.; Semin. Oncol., 1984, 11, 285-298) and multidrug-resistant ovarian cancer (A2780/Adr). The known microtubule interfering agents vincristine and paclitaxel were included as references in the resistant and non-resistant ovarian cancer cell lines.

[2] = test system: A2780/Adr (multidrug-resistant ovarian cancer); assay: FMCA cell viability in multidrug-resistant ovarian cancer cell line A2780/Adr; type: cell-based; settings: A2780/Adr multidrug-resistant ovarian cancer cells
Text: as §1, §2, §3, §4

bovine tubulin protein = assay: Tubulin polymerization assay kit (Cytoskeleton Inc), fluorescence; type: biochemical; settings: for inhibitory effects on tubulin polymerization (in words): cell-free, 1, 3 and 10 μM; for IC50: cell-free, example compounds at 1, 3 and 10 μM, controls at 3 μM, 60 min, read-out: Inhibition of tubulin polymerization IC50
Description: Example compounds were further tested in a tubulin polymerization assay kit from Cytoskeleton Inc (Denver, Colo., USA). Polymerization is followed by fluorescence enhancement due to the incorporation of a fluorescent reporter into microtubules as polymerization occurs. Vincristine and paclitaxel at 3 μM were used as positive controls for tubulin polymerization inhibition and stabilisation, respectively. All compounds were dissolved in DMSO, which was used as solvent control. For experiments, example compounds (1, 3, and 10 μM) and control compounds (3 μM) were incubated with bovine tubulin protein in a cell-free environment and the fluorescence was then measured in a fluorometer (Fluostar Optima, BMG Labtech, Offenburg, Germany) at 360/450 nm every minute for a total of 60 mins.

[3] = test system: colchicine site on tubulin (porcine brain tubulin); assay: Colchicine displacement assay, fluorometric detection; type: binding; settings: compound 20 μM, colchicine 2 μM, porcine brain tubulin 2 μM, 2 h; control = colchicine bound to tubulin
Description: To study whether the compounds bind to the colchicine site on tubulin, a colchicine displacement assay using fluorometric detection was performed as previously described (Bhattacharyya B. et al.; Proc Natl Acad Sci USA 1974, 71:2627-31; Risinger A L. et al.; J Pharmacol Exp Ther 2011; 336:652-60). Porcine brain tubulin at 2 μM (Cytoskeleton) in a buffer consisting of 80 mM PIPES, 2 mM MgCl2, 0.5 mM EGTA at pH 7.0 with addition of 1 mM GTP, was incubated alone, with 2 μM colchicine or with 2 μM colchicine in the presence of test compounds or reference compound combretastatin A4 at 20 μM for 2 h in a black half-area 96-well plate (Corning Inc, Corning, N.Y., USA). Thereafter, the fluorescence was measured using a FLUOStar Optima (BMG Labtech) at an excitation of 380 nm and emission of 440 nm. The results are presented as percent of control i.e. colchicine bound to tubulin.

SMILES: Cc1ccc(Nc2nccc(N(C)c3ccc4c(C)n(C)nc4c3)n2)cc1S(N)(=O)=O [Ref. 2, pazopanib, reference compound]
- EC50 [1]: 25.9 µM

SMILES: Cc1nc(Nc2ncc(C(=O)Nc3c(C)cccc3Cl)s2)cc(N2CCN(CCO)CC2)n1 [Ref. 1, dasatinib, reference compound]
- EC50 [1]: 9.7 µM

SMILES: COc1ccc(/C=C\c2cc(OC)c(OC)c(OC)c2)cc1O [Combretastatin A4, combretastatin A4, reference compound]
- Colchicine-tubulin binding Percent of control [3]: 66% of control

SMILES: CC(=O)O[C@H]1C(=O)[C@@]2(C)[C@H]([C@H](OC(=O)c3ccccc3)[C@]3(O)C[C@H](OC(=O)[C@H](O)[C@@H](NC(=O)c4ccccc4)c4ccccc4)C(C)=C1C3(C)C)[C@]1(OC(C)=O)CO[C@@H]1C[C@@H]2O [Paclitaxel, paclitaxel, reference compound]
- EC50 (A2780 (ovarian cancer)): 0.00026 µM
- EC50 [2]: 0.81 µM

SMILES: CC[C@]1(O)C[C@H]2CN(CCc3c([nH]c4ccccc34)[C@@](C(=O)OC)(c3cc4c(cc3OC)N(C=O)[C@H]3[C@@](O)(C(=O)OC)[C@H](OC(C)=O)[C@]5(CC)C=CCN6CC[C@]43[C@@H]65)C2)C1 [Vincristine, vincristine, reference compound]
- EC50 (A2780 (ovarian cancer)): 0.00022 µM
- EC50 [2]: 0.21 µM
- IC50 (bovine tubulin protein): < 3 µM

SMILES: CCOc1ccc2[nH]cc(CCNc3nc(C)cc(Nc4ccc5cc(C)[nH]c5c4)n3)c2c1 [Example 6]
- EC50 [1]: 0.069 µM
- EC50 (A2780 (ovarian cancer)): 0.17 µM
- EC50 [2]: 0.45 µM

The next lines start with results.

- EC50 (A2780 (ovarian cancer)): 0.017 µM
- EC50 [2]: 0.38 µM
- IC50 (bovine tubulin protein): 1 to 3 µM
- Colchicine-tubulin binding Percent of control [3]: 95% of control
SMILES: CCOc1ccc2[nH]cc(CCNc3nccc(Nc4ccc5c(c4)nc(C)n5C)n3)c2c1 [Example 1, N^4-(1 2-dimethyl-1H-benzo[d]imidazol-5-yl)-N^2-[2-(5-ethoxy-1H-indol-3-yl)ethyl]pyrimidine-2,4-diamine]
- EC50 [1]: 0.012 µM
- inhibitory effects on tubulin polymerization (in words) (bovine tubulin protein): showed inhibitory effects on tubulin polymerization

- EC50 (A2780 (ovarian cancer)): 0.13 µM
- EC50 [2]: 0.4 µM
- IC50 (bovine tubulin protein): 3 to 10 µM
SMILES: COc1ccc2[nH]cc(CCNc3nc(C)cc(Nc4ccc5cc(C)[nH]c5c4)n3)c2c1 [Example 5, N^2-[2-(5-methoxy-1H-indol-3-yl)ethyl]-6-methyl-N^4-(2-methyl-1H-indol-6-yl)pyrimidine-2,4-diamine]
- EC50 [1]: 0.1 µM
- inhibitory effects on tubulin polymerization (in words) (bovine tubulin protein): showed inhibitory effects on tubulin polymerization

- EC50 (A2780 (ovarian cancer)): 0.0033 µM
- EC50 [2]: 0.017 µM
- IC50 (bovine tubulin protein): 1 to 3 µM
- Colchicine-tubulin binding Percent of control [3]: 81% of control
SMILES: COc1ccc2[nH]cc(CCNc3nccc(Nc4cccc5c4ncn5C)n3)c2c1 [Example 2, N^2-[2-(5-methoxy-1H-indol-3-yl)ethyl]-N^4-(1-methylbenzimidazol-4-yl)pyrimidine-2,4-diamine]
- EC50 [1]: 0.0097 µM
- inhibitory effects on tubulin polymerization (in words) (bovine tubulin protein): showed inhibitory effects on tubulin polymerization

- EC50 (A2780 (ovarian cancer)): 0.012 µM
- EC50 [2]: 0.053 µM
SMILES: COc1ccc2[nH]cc(CCNc3nc(C)cc(Nc4cccc5c4ccn5C)n3)c2c1 [Example 7, N^2-[2-(5-methoxy-1H-indol-3-yl)ethyl]-6-methyl-N^4-(1-methylindol-4-yl)pyrimidine-2,4-diamine]
- EC50 [1]: 0.032 µM

- EC50 (A2780 (ovarian cancer)): 0.048 µM
- EC50 [2]: 0.13 µM
- IC50 (bovine tubulin protein): ~3 µM
- Colchicine-tubulin binding Percent of control [3]: 82% of control
SMILES: CCOc1ccc2[nH]cc(CCNc3nc(C)cc(Nc4cccc5c4ccn5C)n3)c2c1 [Example 8, N^2-[2-(5-ethoxy-1H-indol-3-yl)ethyl]-6-methyl-N^4-(1-methylindol-4-yl)pyrimidine-2,4-diamine]
- EC50 [1]: 0.11 µM
- inhibitory effects on tubulin polymerization (in words) (bovine tubulin protein): showed inhibitory effects on tubulin polymerization

- EC50 (A2780 (ovarian cancer)): 0.0092 µM
- EC50 [2]: 0.024 µM
SMILES: CCOc1ccc2[nH]cc(CCNc3nccc(Nc4cccc5c4ncn5C)n3)c2c1 [Example 3, N^2-[2-(5-ethoxy-1H-indol-3-yl)ethyl]-N^4-(1-methylbenzimidazol-4-yl)pyrimidine-2,4-diamine]
- EC50 [1]: 0.0056 µM

- EC50 (A2780 (ovarian cancer)): 0.95 µM
- EC50 [2]: 0.93 µM
- IC50 (bovine tubulin protein): > 10 µM
SMILES: CCOc1ccc2[nH]cc(CCNc3nc(C)cc(Nc4ccc5[nH]ccc5c4)n3)c2c1 [Example 4, N^2-[2-(5-ethoxy-1H-indol-3-yl)ethyl]-N^4-(1H-indol-5-yl)-6-methyl-pyrimidine-2,4-diamine]
- EC50 [1]: 0.8 µM
